Experimental data: patent publication US11930815B1, “3,3′-(piperazine-1,4-diyl)bis(1-(naphthalen-2-yloxy)propan-2-ol) as insecticidal agent” (priority 2023, dated 2024)
≈ marks a conversion by molar mass, not a printed value. Like-named read-outs stand apart in the source and are kept apart here.

Experiments:
[1] = tested on: 4th instars of larvae of Spodoptera littoralis; assay: Insecticidal bioassay screening, castor leaf dip, 4th instar larvae; assay type: in vivo; conditions: for Toxic ratio: 4th larvae, fenoxycarb's LC50/the compound's LC50 × 100
Protocol: (§1) Five concentrations (200, 100, 50, 25, 12.5 ppm) were designed for this synthetic compound and the reference fenoxycarb compound as the dynamic ingredients based on ppm via diluting the commercial formulation.
(§2) In this experiment, castor leaves are immersed in each of the previously prepared concentrations of the components for 10 seconds and then left to dry for 60 minutes. Larvae of the second and fourth instars of each checked strain are prepared with treated leaves in gauze-covered glass containers for 72 hrs. An untreated control is made in which leaves are dipped in triton x-100 and distilled water only. Then the preserved leaves were removed & fresh, untreated leaves were provided for 72 hours. Three replicates (10 larvae each) were checked for each concentration. Daily inspection was carried out for all treatments and mortality percentages were recorded 3 days (72 hours) after treatment. The average mortality percentage was corrected employing Abbott's formula. The corrected mortality rate for each of the previously synthesized compounds is statistically calculated according to Finney (1970). Through this rate, the corresponding concentration test lines (LDP lines) are assessed. Fifty and ninety percent mortality are determined, and the regression values for the checked products were previously evaluated.

[2] = tested on: 2nd instars of larvae of Spodoptera littoralis; assay: Insecticidal bioassay screening, castor leaf dip, 2nd instar larvae; assay type: in vivo; conditions: for Toxic ratio: 2nd larvae, fenoxycarb's LC50/the compound's LC50 × 100
Protocol: as §1, §2

[3] = Spodoptera littoralis, foliar, 72 h

Row | Compound | LC50 ([1]; in vivo) | LC50 ([2]; 2nd instars of larvae of Spodoptera littoralis, after 72 hours of treatment) | Toxic ratio ([1]; 72 h) | LC50 [1, 3] | Toxic ratio ([2]; 72 h) | LC50 ([2]; Spodoptera littoralis, foliar, 2nd larvae of S. littoralis, after 72 h of treatment, treated castor leaves, read-out: LC50) | LC50 ([2]; foliar, against Spodoptera littoralis under laboratory conditions, instar not stated, read-out: LC50) | activity against Spodoptera littoralis ([2]; verbal summary of Table 1, compared with fenoxycarb) | LC50 [2, 3]
1 | OC(COc1ccc2ccccc2c1)CN1CCN(CC(O)COc2ccc3ccccc3c2)CC1 (centres unmarked) [3,3′-(piperazine-1,4-diyl)bis(1-(naphthalen-2-yloxy)propan-2-ol)] | about 86.98 ppm | about 42.05 ppm |  |  |  |  |  |  | 
2 | OC(COc1ccc2ccccc2c1)CN1CCN(CC(O)COc2ccc3ccccc3c2)CC1 (centres unmarked) [Compound 9, 3,3′-(piperazine-1,4-diyl)bis(1-(naphthalen-2-yloxy)propan-2-ol)] |  |  | 49.7 | 87 µg/mL (≈ 179 µM) | 6.51 | 42 µg/mL (≈ 86.4 µM) | 42 µg/mL (≈ 86.4 µM) | active | 
3 | CCOC(=O)NCCOc1ccc(Oc2ccccc2)cc1 [Fenoxycarb, reference compound] |  |  | 100 |  | 100 |  |  |  | 2.73 µg/mL (≈ 9.06 µM)
